Experimental data reported in DBAASP.
Converted amounts (≈) assume the structure as drawn. “And” between values parts separate entries of the source, which are not always exact repeats. Equal values may be shown once.

Key:
Test in all cases: ≥ marks a high value that may be exact or a test limit, other limits are often not marked, values filed in µg/mL are converted to µM
Klebsiella pneumoniae = test system: Klebsiella pneumoniae
[1] = test system: Escherichia coli ATCC 25922
Acinetobacter baumannii = test system: Acinetobacter baumannii
[2] = test system: Pseudomonas aeruginosa ATCC 27853
[3] = test system: Klebsiella pneumoniae ATCC 13883
Pseudomonas aeruginosa = test system: Pseudomonas aeruginosa
[4] = test system: Acinetobacter baumannii ATCC 19606
Staphylococcus aureus = test system: Staphylococcus aureus
[5] = test system: Staphylococcus aureus ATCC 25923
Escherichia coli = test system: Escherichia coli
[6] = test system: Salmonella enterica subsp. enterica serovar Typhimurium ATCC 14028
[7] = test system: Pseudomonas aeruginosa PAO1
[8] = test system: Pseudomonas aeruginosa KCTC 1637
[9] = test system: Salmonella typhimurium KCTC 1926
[10] = test system: Bacillus subtilis KCTC 3068
[11] = test system: Escherichia coli KCTC 1682
[12] = test system: Staphylococcus aureus KCTC 1621
[13] = test system: Staphylococcus epidermidis KCTC 1917
[14] = test system: Enterococcus faecalis ATCC 29212
[15] = test system: Escherichia coli DH5alpha
Bacillus subtilis = test system: Bacillus subtilis
Bacillus cereus = test system: Bacillus cereus

Row | MIC [3] | MIC [5] | MIC (Escherichia coli) | MIC [8] | MIC [9] | MIC [10] | MIC [11] | MIC [12] | MIC [13] | MIC (Bacillus cereus) | further results | Compound
1 | 2.83 µM (≈ 5.67 µg/mL) | 22.6 µM (≈ 45.4 µg/mL) | 64 µM (≈ 128 µg/mL) | – | – | – | – | – | – | – | MIC (Klebsiella pneumoniae): 8 µM (≈ 16 µg/mL); MIC [1]: 4 µM (≈ 8.02 µg/mL); MIC (Acinetobacter baumannii): ≥ 64 µM; MIC [2]: 11.3 µM (≈ 22.7 µg/mL); MIC (Pseudomonas aeruginosa): 11.3 µM (≈ 22.7 µg/mL); MIC [4]: 1.41 µM (≈ 2.84 µg/mL); MIC (Staphylococcus aureus): 16 µM (≈ 32.1 µg/mL) | CC[C@H](C)[C@H](NC(=O)[C@H](CCCCN)NC(=O)[C@H](CC(C)C)NC(=O)[C@H](C)NC(=O)[C@H](CCCCN)NC(=O)[C@H](CC(C)C)NC(=O)[C@H](C)NC(=O)CNC(=O)[C@H](CCCCN)NC(=O)[C@H](C)NC(=O)[C@@H](NC(=O)[C@@H](N)CCCCN)[C@@H](C)CC)C(=O)N[C@@H](C)C(=O)N[C@@H](CCCCN)C(=O)NCC(=O)N[C@@H](C)C(=O)N[C@@H](CC(C)C)C(=O)N[C@@H](CCCCN)C(=O)N[C@@H](C)C(=O)N[C@@H](CC(C)C)C(N)=O [KIAKGALKALKIAKGALKAL]
2 | 30 µM (≈ 54.3 µg/mL) | > 30 µM | – | – | – | – | – | – | – | – | MIC [6]: > 30 µM; MIC [1]: > 30 µM; MIC [7]: 14.8 µM and 30 µM; MIC [4]: > 30 µM | CC(C)C[C@H](NC(=O)[C@H](C)NC(=O)[C@H](Cc1c[nH]c2ccccc12)NC(=O)CNC(=O)[C@H](CCCN=C(N)N)NC(=O)[C@@H](N)CCCN=C(N)N)C(=O)N[C@@H](CCCN=C(N)N)C(=O)N1CCC[C@H]1C(=O)N[C@H](C(=O)N[C@@H](CC(C)C)C(=O)N[C@@H](C)C(=O)N[C@@H](Cc1ccccc1)C(=O)NCC(=O)N[C@@H](CCCN=C(N)N)C(=O)N[C@@H](CCCN=C(N)N)C(N)=O)C(C)C [RRGWALRPVLAFGRR]
3 | – | – | – | 22.3 µM (≈ 40 µg/mL) | 2.79 µM (≈ 5 µg/mL) | 5.58 µM (≈ 9.99 µg/mL) | 2.79 µM (≈ 5 µg/mL) | 2.79 µM (≈ 5 µg/mL) | 2.79 µM (≈ 5 µg/mL) | – | – | CC[C@H](C)[C@H](N)C(=O)N[C@@H](CC(C)C)C(=O)N1CCC[C@H]1C(=O)N[C@@H](Cc1c[nH]c2ccccc12)C(=O)N[C@@H](CCCCN)C(=O)N[C@@H](Cc1c[nH]c2ccccc12)C(=O)N1CCC[C@H]1C(=O)N[C@@H](CCCCN)C(=O)N[C@@H](CCCCN)C(=O)N1CCC[C@H]1C(=O)N[C@@H](Cc1c[nH]c2ccccc12)C(=O)N[C@@H](CCCN=C(N)N)C(=O)N[C@@H](CCCN=C(N)N)C(N)=O [ILPWKWPKKPWRR]
4 | – | – | – | 10.3 µM (≈ 20 µg/mL) | 5.16 µM (≈ 10 µg/mL) | 5.16 µM (≈ 10 µg/mL) | 10.3 µM (≈ 20 µg/mL) | 2.58 µM (≈ 5 µg/mL) | 5.16 µM (≈ 10 µg/mL) | – | – | CC[C@H](C)[C@H](N)C(=O)N[C@@H](CC(C)C)C(=O)N1CCC[C@H]1C(=O)N[C@@H](Cc1c[nH]c2ccccc12)C(=O)N[C@@H](CCCCN)C(=O)N[C@@H](Cc1c[nH]c2ccccc12)C(=O)N1CCC[C@H]1C(=O)N[C@@H](Cc1c[nH]c2ccccc12)C(=O)N[C@@H](Cc1c[nH]c2ccccc12)C(=O)N[C@@H](CCCCN)C(=O)N[C@@H](Cc1c[nH]c2ccccc12)C(=O)N[C@@H](CCCN=C(N)N)C(=O)N[C@@H](CCCN=C(N)N)C(N)=O [ILPWKWPWWKWRR]
5 | 8 µM (≈ 18.9 µg/mL) | 4 µM (≈ 9.46 µg/mL) | – | – | – | – | – | – | – | – | MIC [6]: 8 µM (≈ 18.9 µg/mL); MIC [2]: 45 µM (≈ 106 µg/mL); MIC [14]: 32 µM (≈ 75.7 µg/mL); MIC [15]: 15 µM (≈ 35.5 µg/mL); MIC (Bacillus subtilis): 8 µM (≈ 18.9 µg/mL) | CC[C@H](C)[C@H](NC(=O)CN)C(=O)NCC(=O)N[C@@H](CCCCN)C(=O)N[C@@H](C)C(=O)N[C@@H](CC(C)C)C(=O)N[C@@H](CCCCN)C(=O)N[C@@H](CCCCN)C(=O)N[C@@H](C)C(=O)N[C@@H](CCCCN)C(=O)N[C@@H](CCCCN)C(=O)NCC(=O)N[C@H](C(=O)NCC(=O)N[C@@H](C)C(=O)N[C@H](C(=O)N[C@@H](CC(C)C)C(=O)N[C@@H](CCCCN)C(=O)N[C@H](C(=O)N[C@@H](CC(C)C)C(=O)N[C@H](C(=O)N[C@H](C(=O)NCC(=O)N[C@@H](CC(C)C)C(=O)O)[C@@H](C)O)[C@@H](C)O)C(C)C)C(C)C)[C@@H](C)CC [GIGKALKKAKKGIGAVLKVLTTGL]
6 | – | – | – | 16 µM (≈ 31.1 µg/mL) | 2 µM (≈ 3.89 µg/mL) | 4 µM (≈ 7.78 µg/mL) | 4 µM (≈ 7.78 µg/mL) | 2 µM (≈ 3.89 µg/mL) | 4 µM (≈ 7.78 µg/mL) | – | – | CC(C)C[C@H](NC(=O)[C@H](Cc1ccccc1)NC(=O)[C@H](CCCN=C(N)N)NC(=O)[C@H](CCCCN)NC(=O)[C@H](Cc1c[nH]c2ccccc12)NC(=O)[C@H](CCCN=C(N)N)NC(=O)[C@H](CCC(N)=O)NC(=O)[C@@H](NC(=O)[C@H](Cc1c[nH]c2ccccc12)NC(=O)[C@H](CCCN=C(N)N)NC(=O)[C@H](CCCCN)NC(=O)[C@@H](N)Cc1c[nH]c2ccccc12)C(C)C)C(=O)N[C@@H](CCCN=C(N)N)C(N)=O [WKRWVQRWKRFLR]
7 | 30 µM (≈ 49.7 µg/mL) | > 30 µM | – | – | – | – | – | – | – | – | MIC [6]: > 30 µM; MIC [1]: > 30 µM; MIC [7]: > 30 µM; MIC [4]: > 30 µM | CC(C)C[C@H](NC(=O)[C@H](CCCN=C(N)N)NC(=O)[C@H](CCCN=C(N)N)NC(=O)[C@H](C)NC(=O)[C@H](Cc1c[nH]c2ccccc12)NC(=O)CNC(=O)[C@H](CCCN=C(N)N)NC(=O)[C@@H](N)CCCN=C(N)N)C(=O)N[C@@H](C)C(=O)N[C@@H](Cc1ccccc1)C(=O)NCC(=O)N[C@@H](CCCN=C(N)N)C(=O)N[C@@H](CCCN=C(N)N)C(N)=O [RRGWARRLAFGRR]
8 | – | – | – | 3.79 µM (≈ 6.25 µg/mL) | 1.9 µM (≈ 3.13 µg/mL) | 3.79 µM (≈ 6.25 µg/mL) | 7.58 µM (≈ 12.5 µg/mL) | 7.58 µM (≈ 12.5 µg/mL) | 3.79 µM (≈ 6.25 µg/mL) | – | – | CC[C@H](C)[C@H](NC(=O)[C@H](CCCN=C(N)N)NC(=O)[C@@H]1CCCN1C(=O)[C@H](CC(C)C)NC(=O)[C@@H](N)CCCN=C(N)N)C(=O)N[C@@H](Cc1c[nH]c2ccccc12)C(=O)N[C@@H](Cc1c[nH]c2ccccc12)C(=O)N[C@H](C(=O)N[C@@H](CCCN=C(N)N)C(=O)N[C@H](C(=O)N1CCC[C@H]1C(=O)N[C@@H](CCCN=C(N)N)C(N)=O)C(C)C)[C@@H](C)CC [RLPRIWWIRVPR]
9 | – | – | > 59.4 µM | – | – | – | – | – | – | ≥ 59.4 µM | – | CC[C@H](C)[C@H](NC(=O)[C@H](Cc1ccccc1)NC(=O)[C@H](CCCCN)NC(=O)[C@H](C)NC(=O)[C@H](CC(C)C)NC(=O)[C@H](CC(=O)O)NC(=O)[C@H](CCCCN)NC(=O)[C@@H](N)C(C)C)C(=O)N[C@@H](C)C(=O)N[C@@H](CCCCN)C(=O)N[C@H](C(=O)N[C@H](C(=O)N[C@@H](C)C(=O)N[C@@H](CCCCN)C(=O)N[C@@H](CCC(N)=O)C(=O)NCC(=O)NCC(=O)N[C@@H](CS)C(=O)N[C@@H](Cc1ccc(O)cc1)C(=O)N[C@@H](CC(C)C)C(=O)O)C(C)C)[C@@H](C)O [VKDLAKFIAKTVAKQGGCYL]
10 | – | – | > 121 µM | – | – | – | – | – | – | ≥ 121 µM | – | CC[C@H](C)[C@H](NC(=O)[C@@H](NC(=O)[C@@H](NC(=O)[C@@H](NC(=O)[C@H](CCCN=C(N)N)NC(=O)[C@H](CCCCN)NC(=O)[C@@H](NC(=O)CNC(=O)[C@@H]1CCCN1C(=O)[C@@H](NC(=O)[C@H](CO)NC(=O)[C@H](Cc1ccccc1)NC(=O)[C@@H](NC(=O)CNC(=O)[C@H](C)NC(=O)[C@H](CC(C)C)NC(=O)[C@@H]1CCCN1C(=O)[C@H](Cc1ccccc1)NC(=O)[C@H](CCCCN)NC(=O)[C@@H](N)CO)[C@@H](C)CC)C(C)C)C(C)C)C(C)C)C(C)C)C(C)C)C(=O)O [SKFPLAGIFSVPGVKRVVVI]
11 | – | – | > 119 µM | – | – | – | – | – | – | ≥ 119 µM | – | CC[C@H](C)[C@H](NC(=O)[C@@H](NC(=O)[C@H](CC(C)C)NC(=O)[C@H](C)NC(=O)[C@@H]1CCCN1C(=O)CNC(=O)[C@H](Cc1ccc(O)cc1)NC(=O)[C@@H](N)CCCCN)C(C)C)C(=O)N[C@@H](C)C(=O)N[C@H](C(=O)N[C@@H](CCCCN)C(=O)N[C@@H](CCCCN)C(=O)N[C@@H](CO)C(=O)N[C@@H](CS)C(=O)N[C@@H](CO)C(=O)N[C@@H](CC(C)C)C(=O)N[C@H](C(=O)N[C@@H](Cc1ccccc1)C(=O)N[C@@H](CCCN=C(N)N)C(=O)N[C@@H](C)C(=O)O)[C@@H](C)O)C(C)C [KYGPALVIAVKKSCSLTFRA]
12 | – | – | 15.3 µM (≈ 32 µg/mL) | – | – | – | – | – | – | ≥ 61.3 µM | MIC (Staphylococcus aureus): > 123 µM | CC(C)C[C@H](NC(=O)[C@@H](N)Cc1ccccc1)C(=O)NCC(=O)NCC(=O)N[C@H](C(=O)N[C@@H](Cc1ccccc1)C(=O)N[C@@H](CCCCN)C(=O)N[C@@H](CCCCN)C(=O)N[C@@H](C)C(=O)N[C@@H](CO)C(=O)N[C@@H](CCCCN)C(=O)N[C@H](C(=O)N[C@@H](Cc1ccccc1)C(=O)NCC(=O)N[C@@H](C)C(=O)N[C@H](C(=O)N[C@@H](Cc1ccccc1)C(=O)NCC(=O)N[C@@H](CCCCN)C(=O)N[C@H](C(=O)O)C(C)C)C(C)C)C(C)C)C(C)C [FLGGVFKKASKVFGAVFGKV]
